Test results taken from US11440903B2, “Salt form and crystal form of compound as FGFR4 inhibitor and preparation method thereof” (GUANGDONG ZHONGSHENG PHARMACEUTICAL CO., LTD, priority 2017, dated 2022).

Tests used:
[1] = Solid stability test of the crystal forms (influence factors and acceleration tests; appearance, XRPD, HPLC content and impurities); type: physicochemical
From the text: A sample of the crystal form A was placed on the bottom of a glass sample bottle, and spread to a thin layer. The sample stored under high temperature, high humidity, and acceleration conditions was placed in a bottle of which the mouth was packed with a pierced aluminum foil to ensure the sample to be sufficiently exposed to ambient air; the sample stored under light radiation conditions was placed at room temperature in a standing bottle of which the mouth was open, the sample was exposed to a light resource, and sampled for detection after being radiated by sufficient energy. Samples were taken and analyzed at various time points, and the test results were compared with the initial test results of 0 day, the inspection items included appearance, content and impurities, and the test results are shown in Table 9.
A sample of the crystal form B (10 mg) was placed on the bottom of a glass sample bottle, and spread to a thin layer. The sample stored under high temperature, high humidity, and acceleration conditions were placed in a bottle of which the mouth was packed with a pierced aluminum foil to ensure the sample to be sufficiently exposed to ambient air; the sample stored under light radiation conditions was placed at room temperature in a standing bottle of which the mouth was open, the sample was exposed to a light resource, and sampled for detection after being radiated by sufficient energy, the control sample stored in dark (open, the whole sample bottle was sealed with aluminum foil to keep the content in dark) and the sample stored under light radiation conditions were placed together to exclude environmental influence on the samples. Samples were taken and analyzed at various time points, and the test results were compared with the initial test results of 0 day, the inspection items included appearance, crystal form, content and impurities, the test results are shown in Table 10.
(§1) A sample of the crystal form C was taken and placed on the bottom of a glass sample bottle, and spread to a thin layer. The sample stored under high temperature, high humidity, and acceleration conditions was placed in a bottle of which the mouth was packed with a pierced aluminum foil to ensure the sample to be sufficiently exposed to ambient air; the sample stored under light radiation conditions was placed at room temperature in a standing bottle of which the mouth was open, the sample was exposed to a light resource, and sampled for detection after being radiated by sufficient energy. Samples were taken and analyzed at various time points, and the test results were compared with the initial test results of 0 day.
as §1, with “D” for “C”
A sample of the crystal form E (10 mg) was taken and placed on the bottom of a glass sample bottle, and spread to a thin layer. […]

[2] = Stability of the crystal form on stirring as suspension in solvent (40° C., 2 days); type: physicochemical
Description: 30 mg of the compound represented by formula (I) was weighed and added into a glass flask, 400 μL acetonitrile-water (1:1) was added to form a suspension. A sample of the suspension was placed on a magnetic stirrer (40° C.) for a dark stirring experiment. The sample of the suspension was centrifuged after stirring at 40° C. for 2 days, and then the residual sample was dried in a vacuum drying oven (30° C.) overnight to give a crystal form A of the compound represented by formula (I). The XRPD pattern of the crystal form A of the compound represented by formula (I) is shown in FIG. 1, the DSC pattern is shown in FIG. 2, and the TGA pattern is shown in FIG. 3.
30 mg of the compound represented by formula (I) was weighed and added into a glass flask, and 400 μL ethyl acetate was added to form a suspension. A sample of the suspension was placed on a magnetic stirrer (40° C.) for dark stirring experiment. The sample of the suspension was centrifuged after stirring at 40° C. for 2 days, and then the residual sample was dried in a vacuum drying oven (30° C.) overnight. The crystal form was detected by XRPD to give a crystal form A of the compound represented by formula (I).
30 mg of the compound represented by formula (I) was weighed and added into a glass flask, and 400 μL methanol was added to form a suspension. A sample of the suspension was placed on a magnetic stirrer (40° C.) for dark stirring experiment. The sample of the suspension was centrifuged after stirring at 40° C. for 2 days, and then the residual sample was dried in a vacuum drying oven (30° C.) overnight to give a crystal form B of the compound represented by formula (I). The XRPD pattern of the crystal form B of the compound represented by formula (I) is shown in FIG. 4, the DSC pattern is shown in FIG. 5, and the TGA pattern is shown in FIG. 6.
50 mg of the compound represented by formula (I) was weighed and added into a 1.5 mL liquid vial, and 200 μL methanol was added thereto, the obtained mixture was homogeneously mixed under ultrasound. The dissolved sample was quickly centrifuged, and the supernatant was placed in a centrifuge tube, the mouth of the tube was packed with a pierced aluminum foil, and then the tube was placed in a fume cupboard for volatilization; the sample of the suspension was placed on a magnetic stirring heater (40° C.) for stirring (in dark), and quickly centrifuged after 2 days. The resultant solid was collected and dried at 30° C. in a vacuum drying oven overnight to give the crystal form C of the compound represented by formula (I). The XRPD pattern of the crystal form C of the compound represented by formula (I) is shown in FIG. 7, the DSC pattern is shown in FIG. 8, and the TGA pattern is shown in FIG. 9.
50 mg of the compound represented by formula (I) was weighed and added into a 1.5 mL liquid vial, and 200 μL ethanol was added thereto, and the obtained mixture was homogeneously mixed under ultrasound. The dissolved sample was quickly centrifuged, the supernatant was placed into a centrifuge tube, and the mouth of the tube was packed with a pierced aluminum foil, and placed in a fume cupboard for volatilization; the sample of the suspension was placed on a magnetic stirring heater (40° C.) for stirring (in dark), and quickly centrifuged after 2 days. The solid obtained as above was collected and dried at 30° C. in a vacuum drying oven overnight to give a crystal form D of the compound represented by formula (I). The XRPD pattern of the crystal form D of the compound represented by formula (I) is shown in FIG. 10, the DSC pattern is shown in FIG. 11, and the TGA pattern is shown in FIG. 12.
35 mg of the compound represented by formula (II) was weighed and added into a 1.5 mL liquid vial, and 400 μL methanol was added thereto, and the obtained mixture was homogeneously mixed under ultrasound. […]

[3] = Acceleration test (40° C./relative humidity of 75%, open), 5 days
[4] = Acceleration test (40° C./relative humidity of 75%, open), 10 days
[5] = High humidity (room temperature/relative humidity of 92.5%, open), 5 days
[6] = High humidity (room temperature/relative humidity of 92.5%, open), 10 days
[7] = High temperature (60° C., open), 5 days
[8] = High temperature (60° C., open), 10 days
[9] = Light radiation (total illumination: 1.2 × 10^6 Lux·hr), 5 days
[10] = Light radiation (total illumination: 1.2 × 10^6 Lux·hr), 10 days
[11] = conclusion of influence factors and acceleration tests

Row | Appearance ([1]; 0 day (initial)) | Content (%) ([1]; 0 day (initial)) | Total Impurities (%) ([1]; 0 day (initial)) | Appearance [1, 3] | Appearance [1, 4] | Content (%) [1, 4] [%] | Total Impurities (%) [1, 4] [%] | Appearance [1, 5] | Appearance [1, 6] | Content (%) [1, 6] [%] | Total Impurities (%) [1, 6] [%] | Appearance [1, 7] | Appearance [1, 8] | Content (%) [1, 8] [%] | Total Impurities (%) [1, 8] [%] | Appearance [1, 9] | Appearance [1, 10] | Content (%) [1, 10] [%] | Total Impurities (%) [1, 10] [%] | stability under acceleration conditions, conclusion in words [1, 11] | Compound | also measured
1 | Off-white | 99.33 | 0.90 | Off-white | Off-white | 99.38 | 0.96 | Off-white | Off-white | 99.36 | 0.89 | Off-white | Off-white | 99.32 | 0.94 | Off-white | Off-white | 99.41 | 0.86 | good | C=CC(=O)N[C@H]1COC[C@H]1Nc1ncc(/C=C(\F)c2c(Cl)c(OC)cc(OC)c2Cl)cn1 [Crystal Form D] | photostability (stability under light radiation), conclusion in words [1, 11]: good; stability under high humidity conditions, conclusion in words [1, 11]: good; thermal stability (high temperature), conclusion in words [1, 11]: good; stability in the ethanol solution ([2]; stirring in ethanol at 40° C. for 2 days): substantially high stability
2 | Off-white | 98.96 | 1.25 | Off-white | Off-white | 98.96 | 1.26 | Off-white | Off-white | 98.22 | 2.08 | Off-white | Off-white | 98.93 | 1.27 | Off-white | Off-white | 98.35 | 1.86 | good | C=CC(=O)N[C@H]1COC[C@H]1Nc1ncc(/C=C(\F)c2c(Cl)c(OC)cc(OC)c2Cl)cn1 [Crystal Form C] | Crystal Form (XRPD) ([1]; 0 day (initial)): form C; Crystal Form (XRPD) [1, 4]: form C; Crystal Form (XRPD) [1, 6]: form C; Crystal Form (XRPD) [1, 8]: form C; Crystal Form (XRPD) [1, 10]: form C; thermal stability (high temperature), conclusion in words [1, 11]: good; stability in the methanol solution ([2]; stirring in methanol at 40° C. for 2 days): substantially high stability
